Source: patent US12240816B2, “Deuterated compounds and uses thereof” (Aldeyra Therapeutics, Inc., priority 2015, dated 2025)
“Also recorded” adds a separate entry of the source. Like-named read-outs stand apart in the source and are kept apart here.

Columns and labels:
PR (h) = molecular target: T1, PR (h) (Homo sapiens, UniProt P06401); experiment: PR (h) (agonist radioligand) binding assay; conditions: 1.0E−05M
T1 construct: T47D cells (cytosol)
T1 sequence (P06401 679-933): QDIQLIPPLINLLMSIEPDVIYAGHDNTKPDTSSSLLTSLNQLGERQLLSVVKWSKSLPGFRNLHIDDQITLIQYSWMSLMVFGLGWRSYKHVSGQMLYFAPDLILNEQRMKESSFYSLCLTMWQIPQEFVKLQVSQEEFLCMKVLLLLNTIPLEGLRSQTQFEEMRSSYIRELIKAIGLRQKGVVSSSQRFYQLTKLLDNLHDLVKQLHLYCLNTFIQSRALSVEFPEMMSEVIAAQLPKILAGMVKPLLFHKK

[1] = molecular target: enzyme and uptake assay panel targets (Table 36) (Homo sapiens, UniProt P27338); experiment: biochemical; type: biochemical; conditions: MAO-B (h) recombinant enzyme; 1.0E−05M
[2] = molecular target: enzyme and uptake assay panel targets (Table 36) (Homo sapiens, UniProt O76074); experiment: biochemical; type: biochemical; conditions: PDE5 (h) (non-selective); 1.0E−05M
[3] = molecular target: enzyme and uptake assay panel targets (Table 36) (Homo sapiens, UniProt Q14790); experiment: biochemical; type: biochemical; conditions: caspase-8 (h); 1.0E−05M
[4] = molecular target: enzyme and uptake assay panel targets (Table 36) (Homo sapiens, UniProt P07948); experiment: biochemical; type: biochemical; conditions: Lyn A kinase (h); 1.0E−05M
[5] = test system: T2, enzyme and uptake assay panel targets (Table 36); experiment: biochemical; type: biochemical; conditions: ATPase (Na+/K+); 1.0E−05M
T2 construct: other: ATPase (Na+/K+); 1.0E−05M; nH; porcine cerebral cortex

[6] = molecular target: enzyme and uptake assay panel targets (Table 36) (Homo sapiens, UniProt P35354); experiment: biochemical; type: biochemical; conditions: COX2(h); 1.0E−05M
[7] = molecular target: enzyme and uptake assay panel targets (Table 36) (Homo sapiens, UniProt O00408); experiment: biochemical; type: biochemical; conditions: PDE2A1 (h); 1.0E−05M
[8] = molecular target: enzyme and uptake assay panel targets (Table 36) (Homo sapiens, UniProt P18054); experiment: biochemical; type: biochemical; conditions: 12-lipoxygenase (h); 1.0E−05M
[9] = test system: enzyme and uptake assay panel targets (Table 36); experiment: biochemical; type: biochemical; conditions: COMT (catechol-O-methyl transferase); 1.0E−05M; flag INTER: Test compound interferes with the assay detection method
[10] = molecular target: enzyme and uptake assay panel targets (Table 36) (Homo sapiens, UniProt P14780); experiment: biochemical; type: biochemical; conditions: MMP-9 (h); 1.0E−05M; flag INTER: Test compound interferes with the assay detection method
[11] = molecular target: enzyme and uptake assay panel targets (Table 36) (Human immunodeficiency virus type 1 group M subtype B, UniProt P04585); experiment: biochemical; type: biochemical; conditions: HIV-1 protease; 1.0E−05M
5-HT2B (h) = 5-HT2B (h) (Homo sapiens, UniProt P41595); experiment: 5-HT2B (h) (agonist radioligand) binding assay; conditions: 1.0E−05M
human hepatocytes = type: in vitro ADME
[12] = read-out: % Inhibition of Control Specific Binding 1st
[13] = read-out: % Inhibition of Control Specific Binding 2nd
[14] = read-out: % Inhibition of Control Specific Binding Mean

Chain of enzyme and uptake assay panel targets (Table 36) (Homo sapiens, UniProt P14780) (P14780 94-707): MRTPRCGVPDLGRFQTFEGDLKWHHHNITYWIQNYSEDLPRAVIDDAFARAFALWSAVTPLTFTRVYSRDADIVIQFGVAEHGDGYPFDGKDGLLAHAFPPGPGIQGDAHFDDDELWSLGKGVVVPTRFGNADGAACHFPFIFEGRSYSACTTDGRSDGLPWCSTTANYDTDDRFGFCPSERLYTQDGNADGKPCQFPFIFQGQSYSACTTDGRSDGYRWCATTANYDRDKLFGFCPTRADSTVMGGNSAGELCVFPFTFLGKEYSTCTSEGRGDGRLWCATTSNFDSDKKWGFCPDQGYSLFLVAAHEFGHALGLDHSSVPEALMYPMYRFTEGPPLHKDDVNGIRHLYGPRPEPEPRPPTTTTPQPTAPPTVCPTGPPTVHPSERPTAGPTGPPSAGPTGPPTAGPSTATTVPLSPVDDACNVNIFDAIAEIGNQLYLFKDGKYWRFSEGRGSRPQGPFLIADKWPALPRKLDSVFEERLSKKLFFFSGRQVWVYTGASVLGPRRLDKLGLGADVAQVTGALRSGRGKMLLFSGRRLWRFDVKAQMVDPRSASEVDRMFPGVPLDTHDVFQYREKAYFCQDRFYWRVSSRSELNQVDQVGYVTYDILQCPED
Chain of enzyme and uptake assay panel targets (Table 36) (Homo sapiens, UniProt Q14790) (Q14790 217-479): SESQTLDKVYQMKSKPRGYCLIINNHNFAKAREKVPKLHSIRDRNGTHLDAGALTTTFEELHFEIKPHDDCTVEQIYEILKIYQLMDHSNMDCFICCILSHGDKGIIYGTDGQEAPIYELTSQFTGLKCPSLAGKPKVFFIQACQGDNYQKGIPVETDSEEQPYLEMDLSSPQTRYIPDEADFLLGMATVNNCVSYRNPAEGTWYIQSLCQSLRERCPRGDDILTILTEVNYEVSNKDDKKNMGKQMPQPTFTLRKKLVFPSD
Chain of enzyme and uptake assay panel targets (Table 36) (Homo sapiens, UniProt P07948) (P07948 whole entry): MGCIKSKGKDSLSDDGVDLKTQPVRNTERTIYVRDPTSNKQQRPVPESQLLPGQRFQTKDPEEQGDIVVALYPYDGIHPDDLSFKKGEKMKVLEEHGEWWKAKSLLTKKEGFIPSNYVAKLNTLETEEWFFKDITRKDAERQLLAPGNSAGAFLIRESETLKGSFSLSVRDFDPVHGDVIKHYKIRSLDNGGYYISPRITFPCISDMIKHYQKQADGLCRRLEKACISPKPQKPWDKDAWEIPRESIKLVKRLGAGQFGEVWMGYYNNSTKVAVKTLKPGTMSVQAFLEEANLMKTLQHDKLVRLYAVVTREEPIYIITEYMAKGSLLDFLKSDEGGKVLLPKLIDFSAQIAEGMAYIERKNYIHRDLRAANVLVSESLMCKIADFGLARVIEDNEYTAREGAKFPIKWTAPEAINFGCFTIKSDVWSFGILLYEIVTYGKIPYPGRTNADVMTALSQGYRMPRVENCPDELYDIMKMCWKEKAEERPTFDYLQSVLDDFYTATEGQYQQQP
Chain of enzyme and uptake assay panel targets (Table 36) (Homo sapiens, UniProt P27338) (P27338 whole entry): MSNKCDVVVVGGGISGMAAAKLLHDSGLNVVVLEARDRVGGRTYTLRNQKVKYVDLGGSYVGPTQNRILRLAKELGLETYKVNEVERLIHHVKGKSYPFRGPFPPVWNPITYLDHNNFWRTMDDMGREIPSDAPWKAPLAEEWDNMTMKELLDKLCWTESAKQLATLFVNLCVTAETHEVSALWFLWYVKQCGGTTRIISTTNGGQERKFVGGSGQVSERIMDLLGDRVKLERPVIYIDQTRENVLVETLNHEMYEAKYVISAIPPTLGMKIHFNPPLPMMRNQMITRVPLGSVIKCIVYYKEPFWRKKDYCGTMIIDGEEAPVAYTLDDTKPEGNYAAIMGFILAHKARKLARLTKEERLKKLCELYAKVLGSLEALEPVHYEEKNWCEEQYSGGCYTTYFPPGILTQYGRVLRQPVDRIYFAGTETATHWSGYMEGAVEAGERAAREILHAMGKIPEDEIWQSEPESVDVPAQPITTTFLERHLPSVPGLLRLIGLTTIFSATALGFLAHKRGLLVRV
Chain of enzyme and uptake assay panel targets (Table 36) (Homo sapiens, UniProt P35354) (P35354 18-604): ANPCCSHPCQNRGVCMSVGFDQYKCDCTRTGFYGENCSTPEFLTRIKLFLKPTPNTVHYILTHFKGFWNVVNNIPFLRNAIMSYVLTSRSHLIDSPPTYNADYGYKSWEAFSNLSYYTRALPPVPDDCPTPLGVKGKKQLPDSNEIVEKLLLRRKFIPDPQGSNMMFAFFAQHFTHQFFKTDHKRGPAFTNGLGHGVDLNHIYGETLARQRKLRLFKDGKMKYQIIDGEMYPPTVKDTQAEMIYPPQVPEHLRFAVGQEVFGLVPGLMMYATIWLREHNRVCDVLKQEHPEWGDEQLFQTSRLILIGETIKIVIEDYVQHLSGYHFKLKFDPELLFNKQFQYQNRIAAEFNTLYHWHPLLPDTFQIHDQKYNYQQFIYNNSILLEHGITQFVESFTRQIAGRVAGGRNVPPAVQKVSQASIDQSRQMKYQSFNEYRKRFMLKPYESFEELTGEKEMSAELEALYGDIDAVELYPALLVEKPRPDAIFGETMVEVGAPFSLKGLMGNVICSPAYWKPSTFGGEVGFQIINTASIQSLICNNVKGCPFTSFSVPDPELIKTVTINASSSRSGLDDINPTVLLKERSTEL
Chain of 5-HT2B (h) (P41595 whole entry): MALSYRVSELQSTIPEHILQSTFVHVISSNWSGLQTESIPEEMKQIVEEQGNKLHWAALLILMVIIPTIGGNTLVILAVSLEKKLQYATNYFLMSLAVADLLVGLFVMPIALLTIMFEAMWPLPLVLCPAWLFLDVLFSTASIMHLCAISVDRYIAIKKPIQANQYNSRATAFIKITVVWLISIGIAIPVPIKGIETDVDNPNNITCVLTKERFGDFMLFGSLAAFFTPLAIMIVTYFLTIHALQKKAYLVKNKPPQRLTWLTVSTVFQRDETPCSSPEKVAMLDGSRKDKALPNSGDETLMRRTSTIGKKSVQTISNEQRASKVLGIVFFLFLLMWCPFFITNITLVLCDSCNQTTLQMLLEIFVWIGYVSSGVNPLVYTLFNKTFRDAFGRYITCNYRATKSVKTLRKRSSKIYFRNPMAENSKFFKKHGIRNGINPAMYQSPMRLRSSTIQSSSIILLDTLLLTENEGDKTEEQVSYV
Chain of enzyme and uptake assay panel targets (Table 36) (Homo sapiens, UniProt P18054) (P18054 whole entry): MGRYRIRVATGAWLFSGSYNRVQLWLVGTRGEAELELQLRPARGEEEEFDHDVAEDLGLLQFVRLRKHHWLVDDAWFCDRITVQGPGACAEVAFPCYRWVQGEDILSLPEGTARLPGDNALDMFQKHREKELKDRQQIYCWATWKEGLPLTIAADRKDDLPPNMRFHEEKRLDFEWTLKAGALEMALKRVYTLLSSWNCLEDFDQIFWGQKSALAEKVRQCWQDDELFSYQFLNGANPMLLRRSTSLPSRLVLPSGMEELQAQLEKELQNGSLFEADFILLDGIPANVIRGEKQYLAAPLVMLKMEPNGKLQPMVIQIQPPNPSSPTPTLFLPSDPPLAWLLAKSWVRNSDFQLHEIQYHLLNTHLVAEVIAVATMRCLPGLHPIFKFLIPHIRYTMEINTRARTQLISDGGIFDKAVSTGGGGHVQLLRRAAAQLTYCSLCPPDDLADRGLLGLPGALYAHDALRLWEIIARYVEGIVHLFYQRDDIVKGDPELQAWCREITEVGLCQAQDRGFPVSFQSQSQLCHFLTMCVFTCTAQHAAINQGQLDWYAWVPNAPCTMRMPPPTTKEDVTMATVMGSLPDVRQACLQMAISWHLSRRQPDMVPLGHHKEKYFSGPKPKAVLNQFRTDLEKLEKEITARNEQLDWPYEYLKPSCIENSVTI
Chain of enzyme and uptake assay panel targets (Table 36) (Homo sapiens, UniProt O00408) (O00408 whole entry): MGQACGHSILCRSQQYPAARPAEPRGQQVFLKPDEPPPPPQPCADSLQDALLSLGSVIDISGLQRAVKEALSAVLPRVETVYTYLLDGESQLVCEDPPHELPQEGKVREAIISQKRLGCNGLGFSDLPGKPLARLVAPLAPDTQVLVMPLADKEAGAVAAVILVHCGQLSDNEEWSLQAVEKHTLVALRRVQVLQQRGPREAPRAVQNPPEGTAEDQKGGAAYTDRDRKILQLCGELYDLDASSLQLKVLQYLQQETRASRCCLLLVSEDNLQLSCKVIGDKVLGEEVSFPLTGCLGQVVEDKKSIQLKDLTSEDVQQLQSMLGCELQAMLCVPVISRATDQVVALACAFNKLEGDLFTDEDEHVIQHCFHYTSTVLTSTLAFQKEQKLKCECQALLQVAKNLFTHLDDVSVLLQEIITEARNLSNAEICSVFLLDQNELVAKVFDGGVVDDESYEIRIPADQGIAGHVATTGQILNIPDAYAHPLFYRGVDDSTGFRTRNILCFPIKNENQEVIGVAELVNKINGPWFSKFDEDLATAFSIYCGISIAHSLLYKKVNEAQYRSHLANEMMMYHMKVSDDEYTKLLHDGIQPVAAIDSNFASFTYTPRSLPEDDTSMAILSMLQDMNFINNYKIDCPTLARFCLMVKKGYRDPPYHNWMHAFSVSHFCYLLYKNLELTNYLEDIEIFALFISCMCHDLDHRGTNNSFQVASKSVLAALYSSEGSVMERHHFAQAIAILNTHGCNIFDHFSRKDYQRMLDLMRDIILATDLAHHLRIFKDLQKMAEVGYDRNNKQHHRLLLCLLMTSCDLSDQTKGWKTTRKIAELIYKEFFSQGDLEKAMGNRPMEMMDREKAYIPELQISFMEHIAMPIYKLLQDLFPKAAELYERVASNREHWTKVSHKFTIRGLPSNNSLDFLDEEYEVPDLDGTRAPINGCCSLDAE

Compound: [2H]C([2H])([2H])C(O)(c1nc2ccc(Cl)cc2cc1N)C([2H])([2H])[2H] [Compound I-1]
- inhibition at 10 µM (PR (h); [12]): 58.7%
- inhibition at 10 µM (PR (h); [13]): 63.1%
- inhibition at 10 µM (PR (h); [14]): 60.9%
- % inhibition of Control Values 1st [1]: −3.1%
- % inhibition of Control Values 2nd [1]: −3.7%
- % inhibition of Control Values Mean [1]: −3.4%
- % inhibition of Control Values 1st [2]: −8.6%
- % inhibition of Control Values 2nd [2]: −2.9%
- % inhibition of Control Values Mean [2]: −5.7%
- % inhibition of Control Values 1st [3]: 14.7%
- % inhibition of Control Values 2nd [3]: 16.4%
- % inhibition of Control Values Mean [3]: 15.6%
- % inhibition of Control Values 1st [4]: −17.7%
- % inhibition of Control Values 2nd [4]: −35.7%
- % inhibition of Control Values Mean [4]: −26.7%
- % inhibition of Control Values 1st [5]: 5.2%
- % inhibition of Control Values 2nd [5]: −0.4%
- % inhibition of Control Values Mean [5]: 2.4%
- % inhibition of Control Values 1st [6]: 12.8%
- % inhibition of Control Values 2nd [6]: 3.0%
- % inhibition of Control Values Mean [6]: 7.9%
- % inhibition of Control Values 1st [7]: 17.1%
- % inhibition of Control Values 2nd [7]: −24.5%
- % inhibition of Control Values Mean [7]: −3.7%
- % inhibition of Control Values 1st [8]: −9.4%
- % inhibition of Control Values 2nd [8]: −4.1%
- % inhibition of Control Values Mean [8]: −6.7%
- % inhibition of Control Values 1st [9]: 5.8%
- % inhibition of Control Values 2nd [9]: 14.7%
- % inhibition of Control Values Mean [9]: 10.3%
- % inhibition of Control Values 1st [10]: 4.5%
- % inhibition of Control Values 2nd [10]: 4.4%
- % inhibition of Control Values Mean [10]: 4.4%
- % inhibition of Control Values 1st [11]: 16.6%
- % inhibition of Control Values 2nd [11]: 4.8%
- % inhibition of Control Values Mean [11]: 10.7%
- inhibition at 10 µM (5-HT2B (h); [12]): 60.8%
- inhibition at 10 µM (5-HT2B (h); [13]): 64.2%
- inhibition at 10 µM (5-HT2B (h); [14]): 62.5%

Compound: CC(C)(O)c1nc2ccc(Cl)cc2cc1N [NS2, 2-(3-amino-6-chloroquinolin-2-yl)propan-2-ol]
- metabolite profile (monkey hepatocytes; NS2, 120 min, monkey hepatocytes): metabolized to M1, M3, M4, M7, M8, and a low amount of M9, with some unchanged NS2 remaining; also recorded: a mono-oxidation metabolite (M), four oxidation+glucuronidation metabolites (M3, M4, M7, and M9), and a glucuronidation metabolite (M)
- Peak Areas Cyno Monkey (monkey hepatocytes; cynomolgus monkey, 120 min, 3 μM): 1.74E+08
- metabolite profile (human hepatocytes; NS2, 120 min, human hepatocytes): metabolized to M1, M7, M8, and a low amount of M9, with some unchanged NS2 remaining; also recorded: a mono-oxidation metabolite (M), two oxidation+glucuronidation metabolites (M7 and M9), and a glucuronidation metabolite (M)
- Peak Areas Human (human hepatocytes; human, 120 min, 3 μM): 4.41E+08
- metabolite profile (rat hepatocytes; NS2, 120 min, rat hepatocytes): metabolized to M1, M7, and M8, with some unchanged NS2 remaining
- Peak Areas Rat (rat hepatocytes; rat, 120 min, 3 μM): 3.14E+08
